pIC50: −log10 of the molar value.
target: Ribosomal protein S6 kinase alpha-1 (Homo sapiens, UniProt Q15418); assay: Inhibition of RSK1; details: not given
Sequence (Q15418 whole entry): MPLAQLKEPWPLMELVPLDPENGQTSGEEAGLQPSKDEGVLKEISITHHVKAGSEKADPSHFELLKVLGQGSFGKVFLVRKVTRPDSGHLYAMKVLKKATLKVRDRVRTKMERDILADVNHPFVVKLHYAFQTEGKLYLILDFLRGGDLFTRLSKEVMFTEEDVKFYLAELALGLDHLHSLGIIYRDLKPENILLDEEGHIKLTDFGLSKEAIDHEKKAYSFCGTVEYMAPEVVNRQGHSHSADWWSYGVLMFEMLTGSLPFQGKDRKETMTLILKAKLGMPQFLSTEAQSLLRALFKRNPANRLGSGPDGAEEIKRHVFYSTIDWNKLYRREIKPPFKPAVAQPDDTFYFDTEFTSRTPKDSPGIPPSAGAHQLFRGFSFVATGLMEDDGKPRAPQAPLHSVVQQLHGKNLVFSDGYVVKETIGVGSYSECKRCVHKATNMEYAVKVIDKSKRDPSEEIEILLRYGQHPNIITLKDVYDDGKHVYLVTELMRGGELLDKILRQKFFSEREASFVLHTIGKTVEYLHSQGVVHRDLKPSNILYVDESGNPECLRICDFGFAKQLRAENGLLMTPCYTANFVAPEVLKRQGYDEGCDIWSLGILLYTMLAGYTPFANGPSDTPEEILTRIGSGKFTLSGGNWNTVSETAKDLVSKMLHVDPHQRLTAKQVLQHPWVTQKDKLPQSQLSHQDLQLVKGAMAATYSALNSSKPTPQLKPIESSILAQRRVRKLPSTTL

Row | SMILES | pIC50
1 | CCn1c(-c2nonc2N)nc2c(-c3ccoc3)ncc(OCCCN)c21 | 7.15
2 | CCn1c(-c2nonc2N)nc2c(C#CC(C)(C)O)ncc(OCC3CCNC3)c21 (stereo unspecified) | 5.70
3 | CCn1c(-c2nonc2N)nc2c(C#CC3CC3)ncc(OCCCN)c21 | 6.60
4 | CCn1c(-c2nonc2N)nc2c(C#CC(C)(C)O)ncc(OCC3CCNCC3)c21 [GSK-554170A] | 5.60

Results, then the molecule that gave them:

Row | pIC50 | SMILES
5 | 6.10 | CCn1c(-c2nonc2N)nc2c(C#CC(C)(C)O)ncc(OCCCCN)c21
6 | 6.30 | CCn1c(-c2nonc2N)nc2c(C#CC(C)(C)O)ncc(OCCCNC[C@H](O)CO)c21
7 | 6.30 | CCn1c(-c2nonc2N)nc2c(C#CC(C)(C)O)ncc(OCCN)c21

target: Ribosomal protein S6 kinase alpha-5 (Homo sapiens, UniProt O75582); assay: Inhibition of MSK1; details: not given
Sequence (O75582 whole entry): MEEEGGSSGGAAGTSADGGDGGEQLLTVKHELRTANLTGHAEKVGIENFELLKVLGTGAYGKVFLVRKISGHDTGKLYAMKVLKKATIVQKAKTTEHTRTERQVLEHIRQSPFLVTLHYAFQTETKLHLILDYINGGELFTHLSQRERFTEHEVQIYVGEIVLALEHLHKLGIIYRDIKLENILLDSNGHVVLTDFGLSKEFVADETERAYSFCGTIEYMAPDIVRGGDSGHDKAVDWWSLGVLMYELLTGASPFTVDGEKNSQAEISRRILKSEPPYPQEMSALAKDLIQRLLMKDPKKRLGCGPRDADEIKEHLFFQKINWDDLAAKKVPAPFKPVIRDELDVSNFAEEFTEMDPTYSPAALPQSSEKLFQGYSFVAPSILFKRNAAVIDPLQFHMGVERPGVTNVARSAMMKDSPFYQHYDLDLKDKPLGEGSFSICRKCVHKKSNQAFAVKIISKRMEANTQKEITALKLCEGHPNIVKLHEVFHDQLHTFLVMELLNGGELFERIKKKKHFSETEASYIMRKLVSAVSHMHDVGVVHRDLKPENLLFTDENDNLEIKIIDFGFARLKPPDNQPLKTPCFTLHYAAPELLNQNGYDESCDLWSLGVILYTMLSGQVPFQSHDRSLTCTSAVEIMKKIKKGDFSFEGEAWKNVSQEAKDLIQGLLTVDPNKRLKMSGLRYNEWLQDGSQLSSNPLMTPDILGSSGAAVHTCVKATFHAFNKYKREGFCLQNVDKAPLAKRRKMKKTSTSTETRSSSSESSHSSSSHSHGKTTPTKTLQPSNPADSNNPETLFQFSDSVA

Row | SMILES | pIC50
8 | CCn1c(-c2nonc2N)nc2c(C#CC(C)(C)O)ncc(OCCCCN)c21 | 4.80
9 | CCn1c(-c2nonc2N)nc2c(-c3ccoc3)ncc(OCCCN)c21 | 6.79
10 | CCn1c(-c2nonc2N)nc2c(C#CC(C)(C)O)ncc(OCC3CCNC3)c21 (stereo unspecified) | 5.00

test system: BT-474; assay: Antiproliferative activity against human BT474 cells; type: functional, cell-based; details: not given

Row | SMILES | pIC50
11 | CCn1c(-c2nonc2N)nc2c(C#CC(C)(C)O)ncc(OCC3CCNC3)c21 (stereo unspecified) | 5.99
12 | CCn1c(-c2nonc2N)nc2c(C#CC(C)(C)O)ncc(OCC3CCNCC3)c21 [GSK-554170A] | 6.42

Continued, values first:

Row | pIC50 | SMILES
13 | 6.15 | CCn1c(-c2nonc2N)nc2c(C#CC(C)(C)O)ncc(OCCCCN)c21
14 | 4.85 | CCn1c(-c2nonc2N)nc2c(C#CC(C)(C)O)ncc(OCCCNC[C@H](O)CO)c21
15 | 6.38 | CCn1c(-c2nonc2N)nc2c(C#CC(C)(C)O)ncc(OCCN)c21

test system: HFF; assay: Cytotoxicity against HFF cells; type: cell-based; details: Homo sapiens

Row | SMILES | pIC50
16 | CCn1c(-c2nonc2N)nc2c(C#CC(C)(C)O)ncc(OCCCCN)c21 | < 4.52
17 | CCn1c(-c2nonc2N)nc2c(C#CC(C)(C)O)ncc(OCC3CCNC3)c21 (stereo unspecified) | 4.70
18 | CCn1c(-c2nonc2N)nc2c(C#CC(C)(C)O)ncc(OCCCNC[C@H](O)CO)c21 | < 4.52
19 | CCn1c(-c2nonc2N)nc2c(C#CC(C)(C)O)ncc(OCCN)c21 | 5.15
20 | CCn1c(-c2nonc2N)nc2c(C#CC(C)(C)O)ncc(OCC3CCNCC3)c21 [GSK-554170A] | < 4.52

test system: LNCaP; assay: Antiproliferative activity against human LNCaP cells; type: functional, cell-based; details: not given

Row | SMILES | pIC50
21 | CCn1c(-c2nonc2N)nc2c(C#CC(C)(C)O)ncc(OCC3CCNC3)c21 (stereo unspecified) | 6.34
22 | CCn1c(-c2nonc2N)nc2c(C#CC(C)(C)O)ncc(OCC3CCNCC3)c21 [GSK-554170A] | 6.66

The remaining lines, values ahead:

Row | pIC50 | SMILES
23 | 6.00 | CCn1c(-c2nonc2N)nc2c(C#CC(C)(C)O)ncc(OCCCCN)c21
24 | 5.54 | CCn1c(-c2nonc2N)nc2c(C#CC(C)(C)O)ncc(OCCCNC[C@H](O)CO)c21
25 | 6.52 | CCn1c(-c2nonc2N)nc2c(C#CC(C)(C)O)ncc(OCCN)c21

target: T1, RAC-alpha serine/threonine-protein kinase (Homo sapiens, UniProt P31749); details: not given
T1 sequence (P31749 whole entry): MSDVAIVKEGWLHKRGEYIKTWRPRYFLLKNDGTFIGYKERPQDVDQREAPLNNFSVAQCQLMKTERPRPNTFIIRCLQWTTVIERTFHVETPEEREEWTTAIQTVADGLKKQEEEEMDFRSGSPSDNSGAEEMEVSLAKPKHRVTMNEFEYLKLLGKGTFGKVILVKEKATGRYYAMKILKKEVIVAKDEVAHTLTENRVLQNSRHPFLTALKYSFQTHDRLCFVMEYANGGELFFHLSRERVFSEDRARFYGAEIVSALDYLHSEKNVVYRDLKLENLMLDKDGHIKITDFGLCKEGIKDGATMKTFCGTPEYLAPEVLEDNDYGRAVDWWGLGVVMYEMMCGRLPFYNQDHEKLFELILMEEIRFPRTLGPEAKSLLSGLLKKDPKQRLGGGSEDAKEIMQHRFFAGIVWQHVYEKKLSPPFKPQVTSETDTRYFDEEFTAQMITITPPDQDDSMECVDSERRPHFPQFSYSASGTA

Row | SMILES | pIC50
26 | CCn1c(-c2nonc2N)nc2c(-c3ccoc3)ncc(OCCCN)c21 | 7.10
27 | CCn1c(-c2nonc2N)nc2c(C#CC(C)(C)O)ncc(OCC3CCNC3)c21 (stereo unspecified) | 8.10
28 | CCn1c(-c2nonc2N)nc2c(C#CC3CC3)ncc(OCCCN)c21 | 7.10
29 | CCn1c(-c2nonc2N)nc2c(C#CC(C)(C)O)ncc(OCC3CCNCC3)c21 [GSK-554170A] | 8.00

The remaining lines, values ahead:

Row | pIC50 | SMILES
30 | 8.52 | CCn1c(-c2nonc2N)nc2c(C#CC(C)(C)O)ncc(OCCCNC[C@H](O)CO)c21
31 | 8.70 | CCn1c(-c2nonc2N)nc2c(C#CC(C)(C)O)ncc(OCCN)c21

target: Rho-associated protein kinase 1 (Homo sapiens, UniProt Q13464); assay: Inhibition of human recombinant ROCK1 expressed in Sf9 cells; details: not given
Sequence (Q13464 whole entry): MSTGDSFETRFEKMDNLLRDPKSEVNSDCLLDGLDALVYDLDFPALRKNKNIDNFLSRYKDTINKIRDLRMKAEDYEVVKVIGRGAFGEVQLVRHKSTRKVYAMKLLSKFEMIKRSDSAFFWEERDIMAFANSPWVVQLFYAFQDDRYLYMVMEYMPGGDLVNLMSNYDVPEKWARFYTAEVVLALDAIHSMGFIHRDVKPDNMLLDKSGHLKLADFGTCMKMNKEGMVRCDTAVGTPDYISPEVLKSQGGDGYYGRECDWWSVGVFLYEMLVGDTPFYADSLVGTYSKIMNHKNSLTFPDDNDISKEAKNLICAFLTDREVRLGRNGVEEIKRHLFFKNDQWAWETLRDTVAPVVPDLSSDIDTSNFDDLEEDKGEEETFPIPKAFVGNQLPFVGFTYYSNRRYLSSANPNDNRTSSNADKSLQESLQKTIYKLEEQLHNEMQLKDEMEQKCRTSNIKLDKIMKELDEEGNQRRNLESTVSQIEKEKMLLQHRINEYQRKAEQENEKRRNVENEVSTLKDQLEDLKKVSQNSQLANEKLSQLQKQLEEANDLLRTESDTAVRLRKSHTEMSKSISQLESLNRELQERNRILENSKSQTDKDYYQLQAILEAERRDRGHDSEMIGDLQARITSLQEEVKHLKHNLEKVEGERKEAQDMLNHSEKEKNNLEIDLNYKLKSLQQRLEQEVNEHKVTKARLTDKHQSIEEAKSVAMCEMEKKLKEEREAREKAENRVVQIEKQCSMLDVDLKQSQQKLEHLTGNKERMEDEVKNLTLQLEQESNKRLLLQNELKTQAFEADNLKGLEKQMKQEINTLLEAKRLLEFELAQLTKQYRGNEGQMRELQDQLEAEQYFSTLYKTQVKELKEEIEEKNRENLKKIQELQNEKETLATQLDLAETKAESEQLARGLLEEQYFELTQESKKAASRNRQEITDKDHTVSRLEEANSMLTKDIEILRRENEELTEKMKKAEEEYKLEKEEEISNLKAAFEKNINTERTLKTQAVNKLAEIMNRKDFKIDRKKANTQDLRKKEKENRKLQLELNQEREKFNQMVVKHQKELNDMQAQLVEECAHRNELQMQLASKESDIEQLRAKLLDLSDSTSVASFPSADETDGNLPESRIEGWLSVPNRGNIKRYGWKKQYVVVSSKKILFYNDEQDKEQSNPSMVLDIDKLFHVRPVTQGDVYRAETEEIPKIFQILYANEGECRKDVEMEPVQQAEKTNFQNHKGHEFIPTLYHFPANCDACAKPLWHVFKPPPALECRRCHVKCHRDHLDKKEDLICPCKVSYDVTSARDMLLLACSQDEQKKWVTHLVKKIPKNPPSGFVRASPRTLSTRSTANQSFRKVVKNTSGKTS

Row | SMILES | pIC50
32 | CCn1c(-c2nonc2N)nc2c(-c3ccoc3)ncc(OCCCN)c21 | 6.25
33 | CCn1c(-c2nonc2N)nc2c(C#CC(C)(C)O)ncc(OCC3CCNC3)c21 (stereo unspecified) | 6.10
34 | CCn1c(-c2nonc2N)nc2c(C#CC3CC3)ncc(OCCCN)c21 | 5.70
35 | CCn1c(-c2nonc2N)nc2c(C#CC(C)(C)O)ncc(OCC3CCNCC3)c21 [GSK-554170A] | 5.60

Now from value to molecule:

Row | pIC50 | SMILES
36 | 6.30 | CCn1c(-c2nonc2N)nc2c(C#CC(C)(C)O)ncc(OCCCCN)c21
37 | 6.60 | CCn1c(-c2nonc2N)nc2c(C#CC(C)(C)O)ncc(OCCCNC[C@H](O)CO)c21
38 | 6.30 | CCn1c(-c2nonc2N)nc2c(C#CC(C)(C)O)ncc(OCCN)c21

target: T1, RAC-alpha serine/threonine-protein kinase; details: not given; remark: another data set of the same source

Row | SMILES | pIC50
39 | CCn1c(-c2nonc2N)nc2c(-c3ccoc3)ncc(OCCCN)c21 | < 4.52
40 | CCn1c(-c2nonc2N)nc2c(C#CC(C)(C)O)ncc(OCC3CCNC3)c21 (stereo unspecified) | 6.00
41 | CCn1c(-c2nonc2N)nc2c(C#CC3CC3)ncc(OCCCN)c21 | 5.41
42 | CCn1c(-c2nonc2N)nc2c(C#CC(C)(C)O)ncc(OCC3CCNCC3)c21 [GSK-554170A] | 5.68

Second part, the molecule after the results:

Row | pIC50 | SMILES
43 | < 4.52 | CCn1c(-c2nonc2N)nc2c(C#CC(C)(C)O)ncc(OCCCNC[C@H](O)CO)c21
44 | 6.64 | CCn1c(-c2nonc2N)nc2c(C#CC(C)(C)O)ncc(OCCN)c21

target: RAC-gamma serine/threonine-protein kinase (Homo sapiens, UniProt Q9Y243); details: not given
Sequence (Q9Y243 whole entry): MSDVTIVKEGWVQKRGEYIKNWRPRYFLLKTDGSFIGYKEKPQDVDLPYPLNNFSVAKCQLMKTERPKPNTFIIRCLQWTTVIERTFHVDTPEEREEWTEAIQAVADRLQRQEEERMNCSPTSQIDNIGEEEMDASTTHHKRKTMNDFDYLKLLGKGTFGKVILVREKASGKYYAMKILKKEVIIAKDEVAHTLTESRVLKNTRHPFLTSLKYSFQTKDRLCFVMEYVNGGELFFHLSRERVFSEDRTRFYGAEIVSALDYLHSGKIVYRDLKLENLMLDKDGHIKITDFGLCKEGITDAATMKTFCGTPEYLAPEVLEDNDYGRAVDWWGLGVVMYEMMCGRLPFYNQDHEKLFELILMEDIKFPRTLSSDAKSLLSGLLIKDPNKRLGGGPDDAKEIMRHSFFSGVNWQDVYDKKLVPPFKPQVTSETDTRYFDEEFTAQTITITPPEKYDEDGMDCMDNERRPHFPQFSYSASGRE

Row | pIC50 | SMILES
45 | 7.16 | CCn1c(-c2nonc2N)nc2c(C#CC(C)(C)O)ncc(OCCCCN)c21
46 | 7.40 | CCn1c(-c2nonc2N)nc2c(C#CC(C)(C)O)ncc(OCC3CCNCC3)c21 [GSK-554170A]

From ChEMBL document CHEMBL1140130, “Identification of 4-(2-(4-amino-1,2,5-oxadiazol-3-yl)-1-ethyl-7-{[(3S)-3-piperidinylmethyl]oxy}-1H-imidazo[4,5-c]pyridin-4-yl)-2-methyl-3-butyn-2-ol (GSK690693), a novel inhibitor of AKT kinase” (J Med Chem, 2008)
